How the values were obtained:
lambsquarters [1] = assay: Test D postemergence; type: in vivo, Chenopodium album; settings: Chenopodium album, post-emergence, scale 0 to 100 (0 no effect, 100 complete control), read-out: Plant response rating, Lambsquarters
Method in brief: (§1)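 Seeds sown in silt loam soil got preemergence sprays; plants in peat/vermiculite potting medium were sprayed postemergence at 2–18 cm (1- to 4-leaf stage). Chemicals were formulated in a non-phytotoxic solvent mixture with surfactant. After 7 to 21 days in a controlled environment, injury was rated visually versus controls, 0 (no effect) to 100 (complete control).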

winter wheat = assay: Test D preemergence; type: in vivo, Triticum aestivum; settings: Triticum aestivum, pre-emergence
Method in brief: as §1

spring wheat = assay: Test D preemergence; type: in vivo, Triticum aestivum; settings: Triticum aestivum, pre-emergence
Method in brief: as §1

bromegrass, downy = assay: Test D preemergence; type: in vivo, Bromus tectorum; settings: Bromus tectorum, pre-emergence, scale 0-100, read-out: Plant response rating, Bromegrass, Downy
Method in brief: as §1

wild oat = assay: Test D postemergence; type: in vivo, Avena fatua; settings: Avena fatua, post-emergence, scale 0 to 100 (0 no effect, 100 complete control), read-out: Plant response rating, Oat, Wild
Method in brief: as §1

deadnettle = assay: Test D postemergence; type: in vivo, Lamium amplexicaule; settings: Lamium amplexicaule, post-emergence, scale 0 to 100 (0 no effect, 100 complete control), read-out: Plant response rating, Deadnettle
Method in brief: as §1

chamomile = assay: Test D postemergence; type: in vivo, Matricaria inodora; settings: Tripleurospermum inodorum, post-emergence, scale 0 to 100 (0 no effect, 100 complete control), read-out: Plant response rating, Chamomile
Method in brief: as §1

arrowleaf sida = assay: Test E postemergence; type: in vivo, Sida rhombifolia; settings: Sida rhombifolia, post-emergence, read-out: Plant response rating, Arrowleaf Sida
Method in brief: (§2)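 Response was scored visually on a 0-100 scale (100 = complete control) versus controls after 14 to 21 days in the greenhouse. Test chemicals, formulated with surfactant in a non-phytotoxic solvent mixture, had been applied preemergence to seeds in silt loam soil or postemergence to 1- to 4-leaf plants in potting medium.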

field poppy = assay: Test D postemergence; type: in vivo, Papaver rhoeas; settings: Papaver rhoeas, post-emergence, scale 0 to 100 (0 no effect, 100 complete control), read-out: Plant response rating, Field Poppy
Method in brief: as §1

lambsquarters [2] = assay: Test D preemergence; type: in vivo, Chenopodium album; settings: Chenopodium album, pre-emergence, scale 0-100, read-out: Plant response rating, Lambsquarters
Method in brief: as §1

Brazilian crabgrass = assay: Test E postemergence; type: in vivo, Digitaria horizontalis; settings: Digitaria horizontalis, post-emergence, read-out: Plant response rating, Crabgrass, Brazil
Method in brief: as §2

chickweed = assay: Test D preemergence; type: in vivo, Stellaria media; settings: Stellaria media, pre-emergence, scale 0-100, read-out: Plant response rating, Chickweed
Method in brief: as §1

windgrass = assay: Test D postemergence; type: in vivo, Apera spica-venti; settings: Apera spica-venti, post-emergence, scale 0 to 100 (0 no effect, 100 complete control), read-out: Plant response rating, Windgrass
Method in brief: as §1

dayflower = assay: Test E postemergence; type: in vivo, Commelina virginica; settings: Commelina virginica, post-emergence, read-out: Plant response rating, Dayflower, VA
Method in brief: as §2

[3] = Postemergence, 31 g ai/ha, scale 0 to 100
[4] = Postemergence, 62 g ai/ha, scale 0 to 100
[5] = Postemergence, 125 g ai/ha, scale 0 to 100
[6] = Postemergence, 250 g ai/ha, scale 0 to 100
[7] = postemergence, 16 g ai/ha, scale 0 to 100, 0 no effect, 100 complete control

Compound `N#Cc1cccc(Oc2ncc(Br)cn2)c1-n1cc(C(F)(F)F)cn1` [Compound 59, 3-[(5-bromo-2-pyrimidinyl)oxy]-2-[4-(trifluoromethyl)-1H-pyrazol-1-yl]benzonitrile] has a pest or weed control at 31 g/ha (lambsquarters [1]; 31 g ai/ha) of 90%, a pest or weed control at 62 g/ha (lambsquarters [1]; 62 g ai/ha) of 85% and a pest or weed control at 125 g/ha (lambsquarters [1]; 125 g ai/ha) of 80%. It also gave a pest or weed control at 250 g/ha (lambsquarters [1]; 250 g ai/ha) of 95%, a plant injury at 31 g/ha (winter wheat; 31 g ai/ha, scale 0 (no effect) to 100 (complete control), read-out: Plant response rating, Wheat, Winter) of 0% and a plant injury at 62 g/ha (winter wheat; 62 g ai/ha, scale 0-100, read-out: Plant response rating, Wheat, Winter) of 5%. The plant injury at 125 g/ha (winter wheat; 125 g ai/ha, scale 0-100, read-out: Plant response rating, Wheat, Winter) was 5%, the plant injury at 250 g/ha (winter wheat; 250 g ai/ha, scale 0-100, read-out: Plant response rating, Wheat, Winter) was 35% and the plant injury at 31 g/ha (spring wheat; 31 g ai/ha, scale 0 (no effect) to 100 (complete control), read-out: Plant response rating, Wheat, Spring) was 0%. For the same compound, the plant injury at 62 g/ha (spring wheat; 62 g ai/ha, scale 0-100, read-out: Plant response rating, Wheat, Spring) was 5%, the plant injury at 125 g/ha (spring wheat; 125 g ai/ha, scale 0-100, read-out: Plant response rating, Wheat, Spring) was 40% and the plant injury at 250 g/ha (spring wheat; 250 g ai/ha, scale 0-100, read-out: Plant response rating, Wheat, Spring) was 55%. It also gave a pest or weed control at 31 g/ha (bromegrass, downy; 31 g ai/ha) of 0%, a pest or weed control at 62 g/ha (bromegrass, downy; 62 g ai/ha) of 0% and a pest or weed control at 125 g/ha (bromegrass, downy; 125 g ai/ha) of 10%. It also gave a pest or weed control at 250 g/ha (bromegrass, downy; 250 g ai/ha) of 40%, a pest or weed control at 31 g/ha (wild oat; 31 g ai/ha) of 25% and a pest or weed control at 62 g/ha (wild oat; 62 g ai/ha) of 30%. It also gave a pest or weed control at 125 g/ha (wild oat; 125 g ai/ha) of 35%, a pest or weed control at 250 g/ha (wild oat; 250 g ai/ha) of 50% and a pest or weed control at 31 g/ha (deadnettle; 31 g ai/ha) of 70%. The pest or weed control at 62 g/ha (deadnettle; 62 g ai/ha) was 75%, the pest or weed control at 125 g/ha (deadnettle; 125 g ai/ha) was 100% and the pest or weed control at 250 g/ha (deadnettle; 250 g ai/ha) was 100%. For the same compound, the pest or weed control at 31 g/ha (chamomile; 31 g ai/ha) was 5%, the pest or weed control at 62 g/ha (chamomile; 62 g ai/ha) was 10% and the pest or weed control at 125 g/ha (chamomile; 125 g ai/ha) was 10%. For the same compound, the pest or weed control at 250 g/ha (chamomile; 250 g ai/ha) was 15%, the pest or weed control at 31 g/ha (arrowleaf sida; [3]) was 70% and the pest or weed control at 62 g/ha (arrowleaf sida; [4]) was 80%. For the same compound, the pest or weed control at 125 g/ha (arrowleaf sida; [5]) was 85%, the pest or weed control at 250 g/ha (arrowleaf sida; [6]) was 90% and the pest or weed control at 16 g/ha (arrowleaf sida; [7]) was 65%. For the same compound, the pest or weed control at 31 g/ha (field poppy; 31 g ai/ha) was 70%, the pest or weed control at 62 g/ha (field poppy; 62 g ai/ha) was 65% and the pest or weed control at 125 g/ha (field poppy; 125 g ai/ha) was 100%. It also gave a pest or weed control at 250 g/ha (field poppy; 250 g ai/ha) of 100%, a pest or weed control at 31 g/ha (lambsquarters [2]; 31 g ai/ha) of 95% and a pest or weed control at 62 g/ha (lambsquarters [2]; 62 g ai/ha) of 100%. It also gave a pest or weed control at 125 g/ha (lambsquarters [2]; 125 g ai/ha) of 95%, a pest or weed control at 250 g/ha (lambsquarters [2]; 250 g ai/ha) of 100% and a pest or weed control at 31 g/ha (Brazilian crabgrass; [3]) of 15%. The pest or weed control at 62 g/ha (Brazilian crabgrass; [4]) was 20%, the pest or weed control at 125 g/ha (Brazilian crabgrass; [5]) was 25% and the pest or weed control at 250 g/ha (Brazilian crabgrass; [6]) was 50%. For the same compound, the pest or weed control at 16 g/ha (Brazilian crabgrass; [7]) was 15%, the pest or weed control at 31 g/ha (chickweed; 31 g ai/ha) was 100% and the pest or weed control at 62 g/ha (chickweed; 62 g ai/ha) was 100%. The pest or weed control at 125 g/ha (chickweed; 125 g ai/ha) was 100%, the pest or weed control at 250 g/ha (chickweed; 250 g ai/ha) was 95% and the pest or weed control at 31 g/ha (windgrass; 31 g ai/ha) was 15%. The pest or weed control at 62 g/ha (windgrass; 62 g ai/ha) was 25%, the pest or weed control at 125 g/ha (windgrass; 125 g ai/ha) was 35% and the pest or weed control at 250 g/ha (windgrass; 250 g ai/ha) was 45%. For the same compound, the pest or weed control at 31 g/ha (dayflower; [3]) was 35%, the pest or weed control at 62 g/ha (dayflower; [4]) was 50% and the pest or weed control at 125 g/ha (dayflower; [5]) was 70%. For the same compound, the pest or weed control at 250 g/ha (dayflower; [6]) was 100% and the pest or weed control at 16 g/ha (dayflower; [7]) was 20%.
